Experimental data published in article PMC7686103 (Bioorganic & medicinal chemistry letters, 2020).

Key:
hCB2 receptors = hCB2 receptors (Homo sapiens, UniProt P34972); assay: [35S]GTPγS binding, modulation of G-protein activity in CHO-hCB2 cell membranes; type: biochemical; conditions: 10 μM
hCB1 receptors = hCB1 receptors (Homo sapiens, UniProt P21554); assay: [35S]GTPγS binding, modulation of G-protein activity in CHO-hCB1 cell membranes; type: biochemical; conditions: 10 μM
Chain of hCB1 receptors (P21554 whole entry): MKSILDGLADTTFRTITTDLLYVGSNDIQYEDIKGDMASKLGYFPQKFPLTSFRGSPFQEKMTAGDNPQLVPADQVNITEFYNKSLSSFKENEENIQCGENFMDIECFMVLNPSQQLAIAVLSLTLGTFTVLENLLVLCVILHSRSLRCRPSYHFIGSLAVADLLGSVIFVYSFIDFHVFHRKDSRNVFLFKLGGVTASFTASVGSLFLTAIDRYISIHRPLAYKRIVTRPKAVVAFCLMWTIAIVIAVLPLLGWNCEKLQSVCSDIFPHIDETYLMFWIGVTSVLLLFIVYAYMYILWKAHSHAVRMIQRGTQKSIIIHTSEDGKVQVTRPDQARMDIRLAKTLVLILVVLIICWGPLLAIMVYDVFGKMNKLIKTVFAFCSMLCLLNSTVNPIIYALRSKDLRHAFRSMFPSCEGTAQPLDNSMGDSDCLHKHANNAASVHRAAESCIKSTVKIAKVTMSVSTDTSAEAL

Chain of hCB2 receptors (P34972 whole entry): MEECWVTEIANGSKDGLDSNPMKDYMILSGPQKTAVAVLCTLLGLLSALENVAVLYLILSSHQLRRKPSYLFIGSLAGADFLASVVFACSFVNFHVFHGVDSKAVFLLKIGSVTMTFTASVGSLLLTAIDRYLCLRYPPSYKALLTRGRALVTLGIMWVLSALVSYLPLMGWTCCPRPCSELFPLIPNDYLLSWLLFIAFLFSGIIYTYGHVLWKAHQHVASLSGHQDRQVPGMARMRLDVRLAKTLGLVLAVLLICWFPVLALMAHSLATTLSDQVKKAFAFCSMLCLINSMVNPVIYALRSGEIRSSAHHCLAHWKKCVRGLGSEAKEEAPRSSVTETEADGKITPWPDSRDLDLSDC

Row | Structure (SMILES) | Intrinsic activity at hCB2 receptors (modulation of [35S]GTPγS binding) (hCB2 receptors) | Intrinsic activity at hCB1 receptors (modulation of [35S]GTPγS binding) (hCB1 receptors)
1 | O=C1/C(=C/c2cn(Cc3ccc(F)cc3)c3ncccc23)N2CCC1CC2 [Compound 8g] | partial agonist | neutral antagonist
2 | COc1ccc(C(=O)c2c(C)n(CCN3CCOCC3)c3cc(I)ccc23)cc1 [AM-630, reference compound] | inverse agonist activity | –
3 | O=C1/C(=C/c2cn(Cc3ccccc3)c3ncccc23)N2CCC1CC2 [Compound 8a] | neutral antagonist | neutral antagonist
4 | O=C1/C(=C/c2cn(Cc3ccc(Cl)cc3)c3ncccc23)N2CCC1CC2 [Compound 8b] | inverse agonist activity | inverse agonist activity
5 | O=C1/C(=C/c2cn(Cc3ccc(Br)cc3)c3ncccc23)N2CCC1CC2 [Compound 8f] | neutral antagonist | inverse agonist
